Measurements: patent publication US4714765A, “Rhodanine derivatives and process for preparing the same” (Taiho Pharmaceutical Company, Limited, priority 1985, dated 1987)
pIC50: −log10 of the molar value.

What follows are molecules tested against T1, Rat Lens Aldose Reductase (Rattus norvegicus, UniProt P07943) (assay: Aldose reductase inhibitory activity (Rat Lens Aldose Reductase)). Settings: rat lens homogenate supernatant; glyceraldehyde as substrate; decrease in NADPH at 340 nm; read-out: IC50 (concentration of the test compound at which 50% inhibition of aldose reductase is achieved).
T1 construct: The lenses were then homogenized in cold distilled water; from tissue; host or cells: lens of Sprague-Dawley rats, supernatant of homogenate (10,000 rpm, 10 min)
Assay type: biochemical, rat (Sprague-Dawley)
Protocol: Aldose reductase inhibitory activity
Rat Lens Aldose Reductase:
This test was conducted according to the method described in J. Biol. Chem., 240, 877 (1965).
Sprague-Dawley rats weighing 100 to 150 g were suffocated with carbon dioxide and the lenses were carefully removed. The lenses were then homogenized in cold distilled water (0.4 ml/lens) and the homogenate was centrifuged at 10,000 rpm for 10 min. The enzyme, i.e. aldose reductase was spectrophotometrically measured by following the decrease in NADPH at 340 nm with glyceraldehyde as substrate. An IC50 i.e., a concentration of the test compound at which 50% inhibition of aldose reductase is achieved was calculated from estimated dose-response curves.

pIC50	Compound
5.40	Cc1cc(C=CC=C2SC(=S)NC2=O)on1 [Compound 1a, 5-[3-(3-methyl-5-isoxazolyl)-1,3-propanediene]rhodanine]
6.89	Cc1cc(C=CC=C2SC(=S)N(CC(=O)O)C2=O)on1 [Compound 1b]
6.19	Cc1cc(CC2SC(=S)N(CC(=O)O)C2=O)on1 (stereo not drawn) [Compound 1g, 5-(3-methyl-5-isoxazolylmethyl)rhodanine-3-acetic acid]
